Experimental data from the NIST ThermoML archive (doi:10.1021/je400510j).
Several values for one entry are separate records, joined by “and”; a condition that tells them apart may be missing. Equal values may be shown once.

Details: Liquid; for mass density: 101.33 kPa, Vibrating tube method; for vapor or sublimation pressure: Closed cell (Static) method

CO[PH](=O)[O-].Cn1cc[n+](C)c1 [1,3-dimethylimidazolium methyl phosphonate]
Details	mass density [kg/m3]
298.15 K	1230.6
299.45 K	1229.8
300.75 K	1229.3
302.15 K	1228.6
303.45 K	1227.9
304.75 K	1227.3
305.85 K	1226.6
307.15 K	1225.8
308.65 K	1224.9
310.35 K	1223.9
311.75 K	1223.1
313.05 K	1222.4
314.45 K	1221.5
315.85 K	1220.7
317.25 K	1219.9
318.75 K	1219.2

c1ccncc1 [pyridine]
Details	vapor or sublimation pressure
288.15 K	1.65 kPa and 1.72 kPa
293.15 K	2.2 kPa and 2.25 kPa
298.15 K	2.83 kPa and 2.85 kPa
303.15 K	3.45 kPa

O [water]
Details	vapor or sublimation pressure [kPa]
283.15 K	1.27
288.15 K	1.73
293.15 K	2.33
298.15 K	3.2

c1ccsc1 [thiophene]
Details	vapor or sublimation pressure
288.15 K	6.78 kPa and 6.75 kPa
293.15 K	8.7 kPa and 8.74 kPa
298.15 K	10.37 kPa and 10.58 kPa
303.15 K	12.98 kPa

Cc1ccccc1 [toluene]
Details	vapor or sublimation pressure
288.15 K	2.42 kPa and 2.35 kPa
293.15 K	3.18 kPa and 3.05 kPa
298.15 K	3.84 kPa
303.15 K	4.73 kPa
